From patent US10077261B2, “Imidazolin-5-one derivative useful as FASN inhibitors for the treatment of cancer” (Janssen Pharmaceutica NV, priority 2012, dated 2018) come the findings set out here.

For test [1], the system named is A2780 ovarian cells. In words: A2780 ovarian cell proliferation assay in lipid reduced medium, with palmitate (MTT). The test is classed as cell-based. The settings on record: Homo sapiens, A2780, 96 h; read-out: pIC50 A2780 Ovarian Cell, With Palmitate (converted). Put shortly:
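In this palmitate-supplemented format, compound dilutions (30 μM down to 0.01 μM) are added to cells in lipid-reduced serum with 25 μM palmitate, 0.2% fatty-acid-free BSA and 0.25% ethanol. After four days (96 h) MTT absorbance at 544 nm is recorded and fitted by minimum sum of squares.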

In test [2] the test system is A2780 ovarian cells. The test is described as follows: A2780 ovarian cell proliferation assay in lipid reduced medium, without palmitate (MTT). The test is classed as cell-based. Conditions: Homo sapiens, A2780, 96 h; read-out: pIC50 A2780 Ovarian Cell, Without Palmitate (converted).
The target in test [3] is T1, hFASN enzyme (full length) (Homo sapiens, UniProt P49327).
T1 construct: 10 μL hFASN enzyme (full length, 300 ng, purified in house); made in house
The test is described as follows: Fatty Acid Synthase (FASN) inhibition scintillation proximity assay. The class given is biochemical. Conditions: for inhibition at 10 µM: read-out: Human FASN % inhibition @ 10 μM, 10 μM test compound; for IC50: read-out: Human FASN pIC50 (converted). In short, it runs like this: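 Read-out relies on hydrophobic ³H-palmitate product, formed from ³H-acetyl-CoA and malonyl-CoA, binding streptavidin imaging beads, measured at 610±20 nm after at least 24 h. Full-length enzyme (300 ng) in phosphate buffer pH 7.5 with DTT; eight compound concentrations, 0.01–30 μM.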
On the technique in general: Scintillation proximity formats need no separation of bound from free tracer.

Bounds are passed on as bounds.

T1 sequence (P49327 whole entry): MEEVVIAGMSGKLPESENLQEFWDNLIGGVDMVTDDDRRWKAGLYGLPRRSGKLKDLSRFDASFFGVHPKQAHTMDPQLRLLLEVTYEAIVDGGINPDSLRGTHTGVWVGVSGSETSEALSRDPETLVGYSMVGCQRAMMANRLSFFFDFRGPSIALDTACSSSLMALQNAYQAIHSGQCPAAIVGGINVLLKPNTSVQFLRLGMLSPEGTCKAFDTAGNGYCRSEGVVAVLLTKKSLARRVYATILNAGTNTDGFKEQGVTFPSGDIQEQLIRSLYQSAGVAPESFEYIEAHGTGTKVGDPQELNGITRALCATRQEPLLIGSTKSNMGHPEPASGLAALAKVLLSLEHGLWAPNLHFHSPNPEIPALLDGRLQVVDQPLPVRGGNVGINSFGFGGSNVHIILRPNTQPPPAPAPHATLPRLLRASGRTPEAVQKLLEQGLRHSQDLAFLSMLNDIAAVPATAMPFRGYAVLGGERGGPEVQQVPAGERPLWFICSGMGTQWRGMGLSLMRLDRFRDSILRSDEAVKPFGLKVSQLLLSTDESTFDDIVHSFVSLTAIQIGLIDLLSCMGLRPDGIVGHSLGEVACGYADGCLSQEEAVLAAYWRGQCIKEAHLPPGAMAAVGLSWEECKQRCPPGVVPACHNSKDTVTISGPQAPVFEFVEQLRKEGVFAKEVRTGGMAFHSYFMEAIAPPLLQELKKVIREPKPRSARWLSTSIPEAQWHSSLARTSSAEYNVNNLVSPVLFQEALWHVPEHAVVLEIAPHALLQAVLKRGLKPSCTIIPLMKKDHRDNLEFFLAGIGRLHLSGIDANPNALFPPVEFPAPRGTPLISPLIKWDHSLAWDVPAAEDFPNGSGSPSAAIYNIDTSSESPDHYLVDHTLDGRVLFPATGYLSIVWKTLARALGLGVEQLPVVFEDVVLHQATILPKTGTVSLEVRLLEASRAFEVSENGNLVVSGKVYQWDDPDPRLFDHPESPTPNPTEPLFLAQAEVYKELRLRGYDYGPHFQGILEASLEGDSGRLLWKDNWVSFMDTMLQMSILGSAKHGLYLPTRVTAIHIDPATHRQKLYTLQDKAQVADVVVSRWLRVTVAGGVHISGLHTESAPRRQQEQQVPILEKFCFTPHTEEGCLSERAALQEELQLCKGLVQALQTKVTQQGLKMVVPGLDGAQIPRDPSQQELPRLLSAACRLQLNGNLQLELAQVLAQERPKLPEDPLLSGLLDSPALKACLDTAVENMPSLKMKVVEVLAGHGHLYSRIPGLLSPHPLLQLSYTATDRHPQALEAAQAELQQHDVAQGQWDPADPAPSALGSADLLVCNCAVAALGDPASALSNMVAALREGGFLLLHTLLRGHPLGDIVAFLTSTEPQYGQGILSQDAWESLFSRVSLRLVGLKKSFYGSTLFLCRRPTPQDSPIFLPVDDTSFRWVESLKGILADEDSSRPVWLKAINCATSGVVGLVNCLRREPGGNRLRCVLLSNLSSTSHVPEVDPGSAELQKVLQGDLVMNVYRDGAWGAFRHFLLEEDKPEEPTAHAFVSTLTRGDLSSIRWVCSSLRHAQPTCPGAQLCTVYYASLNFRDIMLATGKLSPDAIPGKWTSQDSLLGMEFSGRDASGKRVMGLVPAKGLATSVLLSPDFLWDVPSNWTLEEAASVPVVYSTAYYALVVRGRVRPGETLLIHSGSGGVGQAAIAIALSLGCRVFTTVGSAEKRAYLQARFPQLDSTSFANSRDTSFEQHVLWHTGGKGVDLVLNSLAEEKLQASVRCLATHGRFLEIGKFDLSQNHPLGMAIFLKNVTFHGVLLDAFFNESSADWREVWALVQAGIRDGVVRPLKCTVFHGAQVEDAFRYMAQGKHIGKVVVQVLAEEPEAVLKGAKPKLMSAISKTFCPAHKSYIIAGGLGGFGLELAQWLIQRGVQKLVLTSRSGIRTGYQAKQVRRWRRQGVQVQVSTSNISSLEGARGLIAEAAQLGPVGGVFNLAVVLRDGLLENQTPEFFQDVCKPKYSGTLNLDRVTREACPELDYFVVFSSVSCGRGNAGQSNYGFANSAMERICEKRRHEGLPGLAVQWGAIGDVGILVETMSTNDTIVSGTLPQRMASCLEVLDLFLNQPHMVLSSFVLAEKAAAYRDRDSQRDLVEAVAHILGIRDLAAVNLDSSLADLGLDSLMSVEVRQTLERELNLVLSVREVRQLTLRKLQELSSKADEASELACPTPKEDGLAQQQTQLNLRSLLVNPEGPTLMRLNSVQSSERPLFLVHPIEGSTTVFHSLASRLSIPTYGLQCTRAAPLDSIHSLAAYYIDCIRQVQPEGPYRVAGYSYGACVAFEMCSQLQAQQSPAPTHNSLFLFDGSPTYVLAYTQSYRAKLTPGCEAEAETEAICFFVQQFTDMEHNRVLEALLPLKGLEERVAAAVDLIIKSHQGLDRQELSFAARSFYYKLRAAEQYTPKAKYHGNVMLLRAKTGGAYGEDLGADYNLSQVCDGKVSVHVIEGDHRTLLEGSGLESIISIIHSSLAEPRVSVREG

Broadly, the inhibition is how much of the control response was suppressed. On to `Cc1ccc2ccc(-c3ccc(C4=NC5(CC5)C(=O)N4CC4CN(C(=O)C5CC5)C4)cc3)c(F)c2n1` [compound 561, 6-{[1-(Cyclopropylcarbonyl)azetidin-3-yl]methyl}-5-[4-(8-fluoro-2-methylquinolin-7-yl)phenyl]-4,6-diazaspiro[2.4]hept-4-en-7-one], for which the IC50 in test [1] was over 10 µM; in test [2], over 10 µM; in test [3] it was about 7.24 µM. Besides, the inhibition at 10 µM in test [3] came to 56%.
Regarding `O=C(C1CC1)N1CC(CN2C(=O)C3(CC3)N=C2c2ccc(-c3ccc4c(Cl)ccnc4c3)cc2)C1` [compound 563, 5-[4-(4-Chloroquinolin-7-yl)phenyl]-6-{[1-(cyclopropylcarbonyl)azetidin-3-yl]methyl}-4,6-diazaspiro[2.4]hept-4-en-7-one], the figures for the IC50 in test [1], in test [2] and in test [3] were over 10 µM, 3.16 µM and 0.631 µM, respectively. The inhibition at 10 µM in test [3] is 88%.
`Cc1cc(-c2ccc3c(cnn3C)c2)ccc1C1=NC2(CC2)C(=O)N1CC1CN(C(=O)C2(N)CC2)C1` [compound 564, 6-({1-[(1-Aminocyclopropyl)carbonyl]azetidin-3-yl}methyl)-5-[2-methyl-4-(1-methyl-1H-indazol-5-yl)phenyl]-4,6-diazaspiro[2.4]hept-4-en-7-one]: the IC50 in test [1] was over 10 µM; in test [2], 0.525 µM; in test [3], 0.263 µM. The inhibition at 10 µM in test [3] was found to be 97%.
In the same order, the values of `Cn1cc(CCO)c2cc(-c3ccc(C4=NC5(CC5)C(=O)N4CC4CN(C(=O)C5CC5)C4)c(F)c3)ccc21` [compound 568, 6-{[1-(Cyclopropylcarbonyl)azetidin-3-yl]methyl}-5-{2-fluoro-4-[3-(2-hydroxyethyl)-1-methyl-1H-indol-5-yl]phenyl}-4,6-diazaspiro[2.4]hept-4-en-7-one] are 2.4 µM, 0.0468 µM, 0.129 µM and 89%.
On the same counts, the results for `Cc1cc2cc(-c3ccc(C4=NC5(CC5)C(=O)N4CC4CN(C(=O)C5CC5)C4)c(F)c3)ccc2n1C` [compound 569, 6-{[1-(Cyclopropylcarbonyl)azetidin-3-yl]methyl}-5-[4-(1,2-dimethyl-1H-indol-5-yl)-2-fluorophenyl]-4,6-diazaspiro[2.4]hept-4-en-7-one] are 2.19 µM, 0.204 µM, 0.209 µM and 86%.
In the same order, the values of `Cc1cc(C)c2ccc(-c3ccc(C4=NC5(CC5)C(=O)N4CC4CN(C(=O)C5CC5)C4)cc3)cc2n1` [compound 570, 6-{[1-(Cyclopropylcarbonyl)azetidin-3-yl]methyl}-5-[4-(2,4-dimetrhylquinolin-7-yl)phenyl]-4,6-diazaspiro[2.4]hept-4-en-7-one] are over 10 µM, about 5.25 µM, 4.17 µM and 65%.
On to `Cc1cc(-c2cccc(NC(=O)C3CC3)c2)ccc1C1=NC2(CC2)C(=O)N1CC1CN(C(=O)C2CC2)C1` [compound 571, N-[4′-(6-{[1-(Cyclopropylcarbonyl)azetidin-3-yl}methyl]-7-oxo-4,6-diazaspiro[2.4]hept-4-en-5-yl)-3′-methylbiphenyl-3-yl]cyclopropanecarboxamide], for which the values for the IC50 in test [1], in test [2] and in test [3] were over 10 µM, 0.977 µM and 1.38 µM, respectively. In test [3], the inhibition at 10 µM is 79%.
Turning to `Cn1ncc2cc(-c3ccc(C4=NC5(CC5)C(=O)N4CC4CN(C(=O)C5(O)CC5)C4)c(F)c3)ccc21` [compound 572, 5-[2-Fluoro-4-(1-methyl-1H-indazol-5-yl)phenyl]-6-({1-[(1-hydroxycyclopropyl)carbonyl]azetidin-3-yl}methyl)-4,6-diazaspiro[2.4]hept-4-en-7-one], the IC50 in test [1] was over 10 µM; in test [2], 0.0525 µM; in test [3], 0.135 µM. The inhibition at 10 µM in test [3] was determined as 87%.
In the same order, the values of `Cc1cn(C)c2ccc(-c3ccc(C4=NC5(CC5)C(=O)N4CC4CN(C(=O)C5CC5)C4)c(F)c3)cc12` [compound 573, 6-{[1-(Cyclopropylcarbonyl)azetidin-3-yl]methyl}-5-[4-(1,3-dimethyl-1H-indol-5-yl)-2-fluorophenyl]-4,6-diazaspiro[2.4]hept-4-en-7-one] are 1.38 µM, 0.0537 µM, 0.166 µM and 88%.
On the same counts, the results for `Cc1ccc2ccc(-c3ccc(C4=NC5(CC5)C(=O)N4CC4CN(C(=O)C5CC5)C4)c(F)c3)cc2n1` [compound 574, 6-{[1-(Cyclopropylcarbonyl)azetidin-3-yl]methyl}-5-[2-fluoro-4-(2-methylquinolin-7-yl)phenyl]-4,6-diazaspiro[2.4]hept-4-en-7-one] are 5.75 µM, 0.871 µM, 0.813 µM and 82%.
In the same order, the values of `Cc1ccc2c(-c3ccc(C4=NC5(CC5)C(=O)N4CC4CN(C(=O)C5CC5)C4)c(F)c3)cccc2n1` [compound 575, 6-{[1-(Cyclopropylcarbonyl)azetidin-3-yl]methyl}-5-[2-fluoro-4-(2-methylquinolin-5-yl)phenyl]-4,6-diazaspiro[2.4]hept-4-en-7-one] are over 10 µM, about 7.94 µM, 8.13 µM and 52%.
Consider `Cn1nccc1-c1ccc(-c2ccc(C3=NC4(CC4)C(=O)N3CC3CN(C(=O)C4(O)CC4)C3)c(F)c2)cc1` [compound 577, 5-[3-Fluoro-4′-(1-methyl-1H-pyrazol-5-yl)biphenyl-4-yl]-6-({1-[(1-hydroxycyclopropyl)carbonyl]azetidin-3-yl}methyl)-4,6-diazaspiro[2.4]hept-4-en-7-one], for which the IC50 in test [1] was over 10 µM; in test [2] it was 2.45 µM; in test [3], 2.34 µM. In addition, the inhibition at 10 µM in test [3] stood at 67%.
In the same order, the values of `O=C(O)c1ccc2ccc(-c3ccc(C4=NC5(CC5)C(=O)N4CC4CN(C(=O)C5CC5)C4)cc3)cc2n1` [compound 583, 7-[4-(6-{[1-(Cyclopropylcarbonyl)azetidin-3-yl]methyl}-7-oxo-4,6-diazaspiro[2.4]hept-4-en-5-yl)phenyl]quinoline-2-carboxylic acid] are over 10 µM, 2.57 µM, 3.98 µM and 74%.
`Cc1cc(-c2ccc3nn(C)c(CO)c3c2)ccc1C1=NC2(CC2)C(=O)N1CC1CN(C(=O)C2CC2)C1` [compound 587, 6-{[1-(Cyclopropylcarbonyl)azetidin-3-yl]methyl}-5-{4-[3-(hydroxymethyl)-2-methyl-2H-indazol-5-yl]-2-methylphenyl}-4,6-diazaspiro[2.4]hept-4-en-7-one]: the values for the IC50 in test [1], in test [2] and in test [3] were over 10 µM, about 8.51 µM and 3.31 µM, respectively. The inhibition at 10 µM in test [3] amounted to 70%.
In the same order, the values of `COCc1c2cc(-c3ccc(C4=NC5(CC5)C(=O)N4CC4CN(C(=O)C5CC5)C4)c(C)c3)ccc2nn1C` [compound 589, 6-{[1-(Cyclopropylcarbonyl)azetidin-3-yl]methyl}-5-{4-[3-(methoxymethyl)-2-methyl-2H-indazol-5-yl]-2-methylphenyl}-4,6-diazaspiro[2.4]hept-4-en-7-one] are over 10 µM, 5.62 µM, 9.55 µM and 52%.
On the same counts, the results for `Cc1cc(-c2ccc3c(Cl)nn(C)c3c2)ccc1C1=NC2(CC2)C(=O)N1CC1CN(C(=O)C2CC2)C1` [compound 590, 5-[4-(3-Chloro-1-methyl-1H-indazol-6-yl)-2-methylphenyl]-6-{[1-(cyclopropylcarbonyl)azetidin-3-yl]methyl}-4,6-diazaspiro[2.4]hept-4-en-7-one] are over 10 µM, 3.31 µM, 1.74 µM and 80%.
In the case of `O=C(C1CC1)N1CC(CN2C(=O)C3(CC3)N=C2c2ccc(-c3cc(Cl)c4cn[nH]c4c3)cc2F)C1` [compound 592, 5-[4-(4-Chloro-1H-indazol-6-yl)-2-fluorophenyl]-6-{[1-(cyclopropylcarbonyl)azetidin-3-yl]methyl}-4,6-diazaspiro[2.4]hept-4-en-7-one], the IC50 was over 10 µM in test [1], 5.25 µM in test [2] and 2.95 µM in test [3]. In addition, in test [3], the inhibition at 10 µM came to 70%.
In the same order, the values of `Cc1cc(-c2ccc(C3(C#N)CC3)cc2F)ccc1C1=NC2(CC2)C(=O)N1CC1CN(C(=O)C2(C)CC2)C1` [compound 593] are 9.55 µM, 6.76 µM, 7.08 µM and 56%.
In the same order, the values of `Cc1cc(-c2ccc3ccc(Br)cc3n2)ccc1C1=NC2(CC2)C(=O)N1CC1CN(C(=O)C2(C)CC2)C1` [compound 595, 5-[4-(7-Bromoquinolin-2-yl)-2-methylphenyl]-6-({1-[(1-methylcyclopropyl)carbonyl]azetidin-3-yl}methyl)-4,6-diazaspiro[2.4]hept-4-en-7-one] are 6.61 µM, 3.24 µM, 1.35 µM and 83%.
